Test results from article PMC4589676, “Functional characterization and stability improvement of a ‘thermophilic-like’ ene-reductase from Rhodococcus opacus 1CP” (Frontiers in Microbiology, 2015).
Blank lines part the entries; values can stand above or below the compound they belong to.

Legend:
OYERo2 [1] = target: T1, OYERo2 (Rhodococcus opacus, UniProt A0A1B1KA86); assay: flavin absorption spectra (charge-transfer complex); assay type: binding; conditions: phenolic ligand
T1 construct: gene O4328_33150; full length, N-terminal His10-tag kept, codon-optimised synthetic gene (1101 bp) in pET16bP, E. coli BL21 (DE3); 387 residues, theoretical 41,615 Da; variant OYERo2a is GenBank KR349312
Text: flavin absorption spectra (charge-transfer complex) on OYERo2 | OYERo2 forms charge-transfer complexes with phenolic ligands. Next to 4-hydroxybenzaldehyde

OYERo2 [2] = target: T2, OYERo2 (Rhodococcus opacus, UniProt A0A1B1KA86, A92R/Q93R/L94I/E95R/Y96E); assay: absorption spectra and RP-HPLC of extracted flavin; assay type: binding; conditions: variant OYERo2a; same
T2 construct: gene O4328_33150; full length, N-terminal His10-tag kept, codon-optimised synthetic gene (1101 bp) in pET16bP, E. coli BL21 (DE3); 387 residues, theoretical 41,615 Da; variant OYERo2a is GenBank KR349312

OYERo2 [3] = target: T1, OYERo2; assay: absorption spectra and RP-HPLC of extracted flavin; assay type: binding; conditions: non-covalent, 1:1, co-purified
[4] = target: OYERo2, ene-reductase (old yellow enzyme) from Rhodococcus opacus 1CP (Rhodococcus opacus 1CP); assay: SEC; analytical gel filtration, Superdex 200 HR 10/30, room temperature, 50 mM phosphate buffer pH 7.1 with 150 mM NaCl; 30 uM enzyme, elution buffer with 200 uM NADPH
[5] = target: OYERo2, ene-reductase (old yellow enzyme) from Rhodococcus opacus 1CP (Rhodococcus opacus 1CP); assay: SEC; analytical gel filtration, Superdex 200 HR 10/30, room temperature, 50 mM phosphate buffer pH 7.1 with 150 mM NaCl; high protein concentration (119 uM for OYERo2)
[6] = target: OYERo2, ene-reductase (old yellow enzyme) from Rhodococcus opacus 1CP (Rhodococcus opacus 1CP); assay: SEC; analytical gel filtration, Superdex 200 HR 10/30, room temperature, 50 mM phosphate buffer pH 7.1 with 150 mM NaCl; lower protein concentration (59 and 30 uM for OYERo2)

T1 sequence (A0A1B1KA86 entry or part of it): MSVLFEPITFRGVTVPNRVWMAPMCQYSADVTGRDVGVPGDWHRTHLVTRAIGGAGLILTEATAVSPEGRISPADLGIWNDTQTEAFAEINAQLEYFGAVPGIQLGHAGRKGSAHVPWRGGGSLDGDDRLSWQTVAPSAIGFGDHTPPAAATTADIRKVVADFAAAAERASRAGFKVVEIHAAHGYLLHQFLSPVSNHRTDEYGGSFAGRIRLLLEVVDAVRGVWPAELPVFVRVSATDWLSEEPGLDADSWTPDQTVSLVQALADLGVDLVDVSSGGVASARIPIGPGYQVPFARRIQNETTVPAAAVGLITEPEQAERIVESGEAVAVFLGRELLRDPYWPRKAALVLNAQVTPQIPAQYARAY
T2 sequence (A0A1B1KA86 entry or part of it A92R/Q93R/L94I/E95R/Y96E): as the sequence (A0A1B1KA86 entry or part of it) above, with A92R, Q93R, L94I, E95R, Y96E counted along it

Compound: O=Cc1ccc(O)cc1 [4-hydroxybenzaldehyde]
flavin absorption spectra (charge-transfer complex) (OYERo2 [1]): OYERo2 forms charge-transfer complexes with phenolic ligands. Next to 4-hydroxybenzaldehyde

Compound: Cc1cc2nc3c(=O)[nH]c(=O)nc-3n(C[C@H](O)[C@H](O)[C@H](O)COP(=O)(O)O)c2cc1C [FMN]
absorption spectra and RP-HPLC of extracted flavin (OYERo2 [2]): RP-HPLC on flavin samples extracted from purified OYERo2 and OYERo2a
absorption spectra and RP-HPLC of extracted flavin (OYERo2 [3]): The type of flavin cofactor was identified as FMN using RP-HPLC

stoichiometry N [4]: 2
stoichiometry N [5]: 4
stoichiometry N [6]: 2
Compound: OYERo2, ene-reductase (old yellow enzyme) from Rhodococcus opacus 1CP
